Measurements published in article PMC9909988, “Procoxacin bidirectionally inhibits osteoblastic and osteoclastic activity in bone and suppresses bone metastasis of prostate cancer” (Journal of Experimental & Clinical Cancer Research : CR, 2023).

Target: T1, 14–3-3ζ (Homo sapiens, UniProt P63104)
T1 construct: gene YWHAZ
Assay: SPR (Biacore T200, […]-3ζ ab87361 captured on NTA chip); supported by Pro-conjugated magnetic bead pull-down from C4-2B lysate
Assay type: binding

T1 sequence (P63104 whole entry): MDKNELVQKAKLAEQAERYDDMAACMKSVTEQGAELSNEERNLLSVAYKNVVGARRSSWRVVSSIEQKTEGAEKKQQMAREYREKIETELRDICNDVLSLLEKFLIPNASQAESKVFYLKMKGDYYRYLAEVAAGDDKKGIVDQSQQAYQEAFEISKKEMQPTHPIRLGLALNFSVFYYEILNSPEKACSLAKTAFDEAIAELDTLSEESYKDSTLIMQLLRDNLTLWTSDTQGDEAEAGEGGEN

Molecule `CC[C@@H](C(=O)[C@@H](C)[C@@H](O)[C@H](C)[C@@H]1O[C@@H]([C@@H](CC)C(=O)O)CC[C@@H]1C)[C@H]1O[C@]2(C=C[C@@H](O)[C@]3(CC[C@@](C)([C@H]4CC[C@](O)(CC)[C@H](C)O4)O3)O2)[C@H](C)C[C@@H]1C` [Pro, Procoxacin] has a Kd of 1.93 µM.
